Source: patent publication US9422240B2, “Partially saturated nitrogen-containing heterocyclic compound” (TAISHO PHARMACEUTICAL CO., LTD, priority 2012, dated 2016)
One block for each compound: values may come before it.

What was measured:
human PHD2 [1] = molecular target: T1, human PHD2 (Homo sapiens (Human), UniProt Q9GZT9); test: Test 1: human PHD2 inhibitory activity, [14C]-2-oxoglutarate to [14C]-succinic acid radiometric assay with HIF-1α peptide; format: biochemical; settings: test compound's concentration 1 μM; Test 1, [14C]-2-oxoglutarate radiometric assay; read-out: Percent inhibition (% at 1 μM)
Summary of the method: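 Lysate from HighFive insect cells expressing human PHD2 (4 μg/well) was incubated for 15 min at 37° C with a 19-residue HIF-1α peptide and [14C]-2-oxoglutarate. Unreacted 2-oxoglutarate was precipitated with DNPH and filtered off, and [14C]-succinic acid was counted. Inhibition was calculated relative to substrate-free and compound-free controls.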

human PHD2 [2] = molecular target: T1, human PHD2; test: Test 2: human PHD2 inhibitory activity, fluorescence polarization assay of HIF-1α peptide proline hydroxylation; format: biochemical; settings: for inhibition at 1 µM: test compound's concentration 1 μM, Test 2, fluorescence polarization assay, read-out: Percent inhibition (% at 1 μM)
Summary of the method: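 Enzyme from lysate of cells expressing human PHD2 (NM_022051), 40 ng/well, added to compound and 19-residue HIF-1α peptide substrate; 20 min at 30° C., EDTA quench. Prolyl hydroxylation detected by HIF-OH antibody binding via fluorescence polarization; inhibition relative to compound-free wells.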

T1 sequence (Q9GZT9 whole entry): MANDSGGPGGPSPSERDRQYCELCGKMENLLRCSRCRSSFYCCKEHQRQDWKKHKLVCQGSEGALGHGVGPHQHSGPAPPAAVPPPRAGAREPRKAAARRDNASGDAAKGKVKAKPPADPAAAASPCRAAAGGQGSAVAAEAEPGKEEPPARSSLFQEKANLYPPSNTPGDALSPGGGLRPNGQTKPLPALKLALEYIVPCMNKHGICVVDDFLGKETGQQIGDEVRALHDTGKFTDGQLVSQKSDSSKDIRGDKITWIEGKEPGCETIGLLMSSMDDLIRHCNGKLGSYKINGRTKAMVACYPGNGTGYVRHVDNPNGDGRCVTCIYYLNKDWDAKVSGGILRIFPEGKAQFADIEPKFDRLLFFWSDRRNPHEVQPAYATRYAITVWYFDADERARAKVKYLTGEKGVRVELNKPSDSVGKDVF

SMILES: O=C(O)CNC(=O)C1=C(O)CCN(Cc2ccc3c(c2)CCCC3)C1=O [Ex. 1-46]
inhibition at 1 µM (human PHD2 [1]): 78% | inhibition at 1 µM (human PHD2 [2]): 84%

SMILES: O=C(O)CNC(=O)C1=C(O)CCN(c2cccc(Oc3ccccc3)c2)C1=O [Ex. 1-39]
inhibition at 1 µM (human PHD2 [1]): 76% | inhibition at 1 µM (human PHD2 [2]): 86%

SMILES: O=C(O)CNC(=O)C1=C(O)CCN(Cc2ccc(Cc3ccccc3)cc2)C1=O [Ex. 1-42]
inhibition at 1 µM (human PHD2 [1]): 90% | inhibition at 1 µM (human PHD2 [2]): 94%

SMILES: CC1CN(Cc2ccc(Cl)c(Cl)c2)C(=O)C(C(=O)NCC(=O)O)=C1O (stereo not shown) [Ex. 1-163]
inhibition at 1 µM (human PHD2 [1]): 84% | inhibition at 1 µM (human PHD2 [2]): 90%

SMILES: O=C(O)CNC(=O)C1=C(O)CC2(COC2)N(CC2CCC(c3ccccc3)CC2)C1=O (stereo not shown) [Ex. 1-132]
inhibition at 1 µM (human PHD2 [1]): 103% | inhibition at 1 µM (human PHD2 [2]): 94%

SMILES: CC1(C)CC(O)=C(C(=O)NCC(=O)O)C(=O)N1C[C@@H]1C[C@@H]1c1ccccc1 [Ex. 1-244]
inhibition at 1 µM (human PHD2 [1]): 47% | inhibition at 1 µM (human PHD2 [2]): 50%

SMILES: O=C(O)CNC(=O)C1=C(O)CCN(Cc2cccc3ccccc23)C1=O [Ex. 1-33]
inhibition at 1 µM (human PHD2 [1]): 72% | inhibition at 1 µM (human PHD2 [2]): 84%

SMILES: O=C(O)CNC(=O)C1=C(O)CC2(CCOCC2)N(Cc2cnc(-c3ccccc3)s2)C1=O [Ex. 1-98]
inhibition at 1 µM (human PHD2 [1]): 88% | inhibition at 1 µM (human PHD2 [2]): 88%

SMILES: CSc1ccc(CN2CCC(O)=C(C(=O)NCC(=O)O)C2=O)cc1 [Ex. 1-65]
inhibition at 1 µM (human PHD2 [1]): 84% | inhibition at 1 µM (human PHD2 [2]): 85%

SMILES: Cc1ccc(CN2C(=O)C(C(=O)NCC(=O)O)=C(O)CC2C)cc1 (stereo not shown) [Ex. 1-79]
inhibition at 1 µM (human PHD2 [1]): 64% | inhibition at 1 µM (human PHD2 [2]): 71%

SMILES: CC1(C)CN(Cc2ccc(OCC3CC3)cc2)C(=O)C(C(=O)NCC(=O)O)=C1O [Ex. 1-302]
inhibition at 1 µM (human PHD2 [1]): 61% | inhibition at 1 µM (human PHD2 [2]): 79%

SMILES: O=C(O)CNC(=O)C1=C(O)CC2(CCOCC2)N(CC2CCC(c3ccccc3)CC2)C1=O (stereo not shown) [Ex. 1-99]
inhibition at 1 µM (human PHD2 [1]): 71% | inhibition at 1 µM (human PHD2 [2]): 92%

SMILES: O=C(O)CNC(=O)C1=C(O)CCN(Cc2ccc(-c3ccc(-c4ccccc4)cc3)cc2)C1=O [Ex. 2-10]
inhibition at 1 µM (human PHD2 [1]): 84% | inhibition at 1 µM (human PHD2 [2]): 79%

SMILES: CC1(C)CC(O)=C(C(=O)NCC(=O)O)C(=O)N1Cc1ccc(-c2ccccn2)cc1 [Ex. 1-109]
inhibition at 1 µM (human PHD2 [1]): 70% | inhibition at 1 µM (human PHD2 [2]): 77%

More lines, now with the values ahead:

inhibition at 1 µM (human PHD2 [1]): 64% | inhibition at 1 µM (human PHD2 [2]): 62%
SMILES: O=C(O)CNC(=O)C1=C(O)CC2(CCCCC2)N(Cc2ccc(C(F)(F)F)nc2)C1=O [Ex. 1-141]

inhibition at 1 µM (human PHD2 [1]): 97% | inhibition at 1 µM (human PHD2 [2]): 98%
SMILES: O=C(O)CNC(=O)C1=C(O)CCN(Cc2ccc(-c3ccc(F)cc3)cc2F)C1=O [Ex. 1-126]

inhibition at 1 µM (human PHD2 [1]): 80% | inhibition at 1 µM (human PHD2 [2]): 88%
SMILES: O=C(O)CNC(=O)C1=C(O)CC2(CCC2)N(Cc2ccc(Cl)c(Cl)c2)C1=O [Ex. 1-167]

inhibition at 1 µM (human PHD2 [1]): 78% | inhibition at 1 µM (human PHD2 [2]): 92%
SMILES: O=C(O)CNC(=O)C1=C(O)CC2(CCC2)N(CC2CCC(c3ccccc3)CC2)C1=O (stereo not shown) [Ex. 1-137]

inhibition at 1 µM (human PHD2 [1]): 28% | inhibition at 1 µM (human PHD2 [2]): 43%
SMILES: COc1ccc(CN2C(=O)C(C(=O)NCC(=O)O)=C(O)CC2(C)C)cc1OC(F)(F)F [Ex. 1-169]

inhibition at 1 µM (human PHD2 [1]): 49% | inhibition at 1 µM (human PHD2 [2]): 83%
SMILES: CC1(C)CC(O)=C(C(=O)NCC(=O)O)C(=O)N1CC1CCC(c2ccccc2)CC1 (stereo not shown) [Ex. 1-115]

inhibition at 1 µM (human PHD2 [1]): 77% | inhibition at 1 µM (human PHD2 [2]): 83%
SMILES: O=C(O)CNC(=O)C1=C(O)CC(c2ccccc2)N(Cc2ccc(-c3ccccc3)cc2)C1=O (stereo not shown) [Ex. 1-50]

inhibition at 1 µM (human PHD2 [1]): 78% | inhibition at 1 µM (human PHD2 [2]): 78%
SMILES: O=C(O)CNC(=O)C1=C(O)CCN(Cc2c(F)cc(C(F)(F)F)cc2F)C1=O [Ex. 1-135]

inhibition at 1 µM (human PHD2 [1]): 47% | inhibition at 1 µM (human PHD2 [2]): 74%
SMILES: Cc1cc(CN2C(=O)C(C(=O)NCC(=O)O)=C(O)CC2(C)C)ccc1OCCCC(F)(F)F [Ex. 1-187]

inhibition at 1 µM (human PHD2 [1]): 58% | inhibition at 1 µM (human PHD2 [2]): 69%
SMILES: Cc1ccc(CN2C(=O)C(C(=O)NCC(=O)O)=C(O)CC2(C)C)cc1Cl [Ex. 1-202]

inhibition at 1 µM (human PHD2 [1]): 44% | inhibition at 1 µM (human PHD2 [2]): 55%
SMILES: Cc1ccc(CN2C(=O)C(C(=O)NCC(=O)O)=C(O)CC2(C)C)cc1 [Ex. 1-88]

inhibition at 1 µM (human PHD2 [1]): 99% | IC50 (human PHD2 [2]; human PHD2, fluorescence polarization assay, 20-min incubation at 30° C.): 63 nM | inhibition at 1 µM (human PHD2 [2]): 97%
SMILES: Cc1ccccc1Oc1ccc(CN2CCC(O)=C(C(=O)NCC(=O)O)C2=O)cc1 [Ex. 1-283]

inhibition at 1 µM (human PHD2 [1]): 90% | inhibition at 1 µM (human PHD2 [2]): 83%
SMILES: O=C(O)CNC(=O)C1=C(O)CC2(CC2)N(Cc2ccc(OCC3CC3)cc2)C1=O [Ex. 1-251]
